Here are results for two compounds from patent US9549941B2, “Compositions and methods for treating hepatitis C virus” (priority 2011, dated 2017).

Data set [1] in a line: Moisture sorption of GS-7977 Form 6. The class given is physicochemical. An excerpt: (§1) In one aspect, the disclosed composition comprises polymorphic Form 6 of GS-7977.
Data set [2] is described as follows: Chemical stability of GS-7977 Form 6 on open storage. The class given is physicochemical. Conditions: opened conditions at 40° C./75% RH for 30 days.
Source text: as §1

For data set [3], the system named is 1a-H77 sub-genomic replicon, NS5B S282T. Kind of data set: microbe, parasite or virus in culture. It counts as cell-based, hepatitis C virus. Conditions: Hepatitis C virus, read-out: EC50 S282T. As for the experimental part: (§2) (Lam et al., J. Virology (2011) 85(23): 12334-12342; Lam et al., Antimicrob. Agents Chemother. (2012) 56(6): 3359-3368.) S282T mutations in NS5B were created by site-directed mutagenesis in 1a-H77, 1b con-1, and 2a JFH1 sub-genomic replicons. 1b con-1-based chimeric replicons containing 2b, 3a, 4a, 5a, or 6a NS5B were also engineered to harbor the S282T mutation. […] Relative percentages of mutant and WT were assessed by deep sequencing.

In data set [4] the test system is 1a-H77 sub-genomic replicon, wild-type NS5B. Briefly: Transient replicon assay. The class given is cell-based. Conditions: Hepatitis C virus, read-out: EC50 WT. On the procedure:
as §2
A general note: In antiviral work, replicon cells carry a viral genome segment that copies itself.

Data set [5] has as its system 1b con-1-based chimeric replicon containing 5a NS5B, wild-type. Kind of data set: Transient replicon assay. It counts as cell-based. Conditions: Hepatitis C virus, read-out: EC50 WT. On the procedure:
as §2

The test system of data set [6] is 1b con-1-based chimeric replicon containing 6a NS5B, wild-type. Briefly: Transient replicon assay. As to conditions: Hepatitis C virus, read-out: EC50 WT. It counts as cell-based. On the procedure:
as §2

Data set [7] relates to mixture of 50% S282T and 50% WT in GT2a replicons. Briefly: Long-term passaging study with deep sequencing. It counts as cell-based, hepatitis C virus. Conditions: after fifteen days. From the text:
In vitro studies have shown that S282T is the primary mutation selected by GS-7977 in HCV genotype 1a, 1b and 2a replicon cells. (Lam et al., J. Virology (2011) 85(23): 12334-12342; Lam et al., Antimicrob. Agents Chemother. (2012) 56(6): 3359-3368.) S282T mutations in NS5B were created by site-directed mutagenesis in 1a-H77, 1b con-1, and 2a JFH1 sub-genomic replicons. 1b con-1-based chimeric replicons containing 2b, 3a, 4a, 5a, or 6a NS5B were also engineered to harbor the S282T mutation. […] Relative percentages of mutant and WT were assessed by deep sequencing.
(See also Han et al., 63rd Annual Meeting of the American Association for the Study of Liver Diseases, Poster 1078, Nov. 11, 2012.)

For data set [8], the system named is Hepatitis C virus. As to conditions: ribavirin alone, patients with CHC; cited from earlier work.

Take `CC(C)OC(=O)[C@H](C)N[P@](=O)(OC[C@H]1O[C@@H](n2ccc(=O)[nH]c2=O)[C@](C)(F)[C@@H]1O)Oc1ccccc1` [Form 6]: the hygroscopicity entry in data set [1] is recorded as “not hygroscopic”. For the same compound, the moisture sorption entry in data set [1] (room temperature and 90% RH) is on record as “less than 0.2%”. The chemical stability result in data set [2] is recorded as “chemically stable”.
As to `NC(=O)c1ncn([C@@H]2O[C@H](CO)[C@@H](O)[C@H]2O)n1` [Ribavirin, 1-β-D-ribofuranosyl-1H-1,2,4-triazole-3-carboxamide, reference compound], the EC50 in data set [3] stood at 5 nM; in data set [4], 21 nM; in data set [5], 1.9 nM; in data set [6], 5.3 nM. Besides, the “population WT” value in data set [7] is on record as 96%. The “effect on HCV RNA levels” value in data set [8] was “did not reduce HCV RNA levels during or after therapy”.

One may read the EC50 as the midpoint of the concentration-response curve.
